This passage reports IC50 and inhibition results from patent US8362023B2, “Pyrazolo pyrimidines” (Hoffmann-La Roche Inc., priority 2011, dated 2013).

The target of experiment [1] is T1, Human DYRK1B (Homo sapiens, UniProt Q9Y463).
T1 construct: purchased Invitrogen PR8350B (former PV4649)
In words: DYRK1B Kinase TR-FRET (IMAP-Tb) Assay. The class given is biochemical. To be noted: for IC50: TR-FRET (IMAP-Tb), ATP 70 μM, 37° C. for 60 minutes, averages of multiple runs, read-out: Enzyme IC50 (μM) DYRK1B; for inhibition at 10 µM: at 10 μM test compound concentration, where the IC50 was not determined. An excerpt: DYRK1B Kinase TR-FRET (IMAP-Tb) Assay Assay Principle The kinase TR-FRET (IMAP-Tb) assay uses a fluorescence labeled substrate peptide in the kinase reaction. Upon phosphorylation by the kinase, phosphopeptide is produced, which will be detected by the binding solution provided in IMAP TR-FRET binding kit. After the completion of the kinase reaction, the reaction will be stopped by adding the binding solution containing terbium tracer. This tracer is immobilized on the surface of the IMAP beads, which also contain metal ions on the beads that bind to the phospho-groups of the products. Thus the phosphorylated product of the reaction can enter into close proximity to the tracer, producing resonance energy transfer. Due to the long lifetime of terbium (Tb) fluorescence the detection can be run in time resolved mode, which virtually eliminates fluorescence interference from assay components or compounds. The TR-FRET signal measurement from this assay, given as an IC50 measurement, is a measure of a test compound's ability to interfere with the phosphorylation of the peptide substrate, that is it inhibits the phosphorylation of the substrate peptide by DYRK1B, and is thus a measure of the test compound's ability to inhibit the activity of DYRK1B. IC50 is the amount of test compound that inhibits 50% of the activity of DYRK1B in this assay. In some cases where the IC50 was not determined, then the % inhibition at 10 μM test compound concentration may be reported. Materials and Reagents • 1. Human DYRK1B: from Invitrogen. Part #PR8350B (former PV4649) • 2. Substrate Peptide: in-house synthesized: RRRFRPASPLRGPPK • 3. IMAP TR-FRET IPP Explorer Kit: from Molecular Devices. Part #R8157 • 4. Kinase Assay Buffer (KAB): 10 mM HEPES pH 7.0, 50 mM NaCl, 5 mM MgCl2, 1 mM DTT, 1 mM NaVO4, 200 μg/mL BSA (0.02%) • 5. Assay Plate: Remp polypropylene clear 384-well microplate. Cat#23490-102 • 6. Detection Plate: Costa black 384-well microplate. Cat #3710 Assay Procedure: this Assay was Performed as Follows: • 1. Transfer 1.5 μL of 20× compound solution to each well of an assay plate. • 2. Add to each well 22.5 μL of KAB Buffer. • 3. Add to each well 3 μL of the solution of DYRK1B and ATP. […] Add to each well 3 μL of the substrate peptide. The assay concentration is 1.0 μM • 5. Incubate the assay plates at 37° C. for 60 minutes. • 6. Add 18 μL of Detection Solution (1:800 diluted Progress bead stock, 1:400 diluted Tb stock, 80% Buffer A, and 20% Buffer B) into each well of detection plates. • 7. Transfer 6 μL of assay solution from the assay plate to the detection plate. • 8. Shake detection plates for 30 minutes. • 9. Read plates in Envision with wavelength set at excitation 340 nm for Tb, emission 490 nm, and […] 520 nm. • 10. Calculation: TR-FRET Signal=(Reading at […]/Reading at 490 nM)×2000000
For orientation: TR-FRET usually uses a lanthanide donor and a delayed reading to cut background.

The target in experiment [2] is T2, Human DYRK1A (Homo sapiens, UniProt Q13627).
T2 construct: purchased Invitrogen PV3997
In words: DYRK1A Kinase TR-FRET (IMAP-Tb) Assay. It is filed as biochemical. The note with it: for IC50: TR-FRET (IMAP-Tb), ATP 70 μM, 37° C. for 60 minutes, averages of multiple runs, read-out: Enzyme IC50 (μM) DYRK1A. An excerpt:
DYRK1A Kinase TR-FRET (IMAP-Tb) Assay
The kinase TR-FRET (IMAP-Tb) assay uses a fluorescence labeled substrate peptide in the kinase reaction. Upon phosphorylation by the kinase, phosphopeptide is produced, which will be detected by the binding solution provided in IMAP TR-FRET binding kit. After the completion of the kinase reaction, the reaction will be stopped by adding the binding solution containing terbium tracer. This tracer is immobilized on the surface of the IMAP beads, which also contain metal ions on the beads that bind to the phospho-groups of the products. Thus the phosphorylated product of the reaction can enter into close proximity to the tracer, producing resonance energy transfer. Due to the long lifetime of terbium (Tb) fluorescence the detection can be run in time resolved mode, which virtually eliminates fluorescence interference from assay components or compounds.
The TR-FRET signal measurement from this assay, given as an IC50 measurement, is a measure of a test compound's ability to interfere with the phosphorylation of the peptide substrate, that is it inhibits the phosphorylation of the substrate peptide by DYRK1A, and is thus a measure of the test compound's ability to inhibit the activity of DYRK1A.
Materials and Reagents • 1. Human DYRK1A: from Invitrogen. Part #PV3997 • 2. Substrate Peptide: […] • 3. IMAP TR-FRET IPP Explorer Kit: from Molecular Devices. Part #R8157 • 4. Kinase Assay Buffer (KAB): 10 mM HEPES pH 7.0, 50 mM NaCl, 5 mM MgCl2, 1 mM DTT, 1 mM NaVO4, 200 ug/mL BSA (0.02%) • 5. Assay Plate: Remp polypropylene clear 384-well microplate. […] Detection Plate: Costa black 384-well microplate.
Assay Procedure: this Assay was Performed as Follows: • 1. Transfer 1.5 μL of 20× compound solution to each well of an assay plate. • 2. Add to each well 22.5 μL of KAB Buffer. • 3. Add to each well 3 μL of the solution of DYRK1A and ATP. […] Add to each well 3 μL of the substrate peptide. The assay concentration is 1.0 μM • 5. Incubate the assay plates at 37° C. for 60 minutes. • 6. Add 18 μL of Detection Solution (1:800 diluted Progress bead stock, 1:400 diluted Tb stock, 80% Buffer A, and 20% Buffer B) into each well of detection plates. • 7. Transfer 6 μL of assay solution from the assay plate to the detection plate. • 8. Shake detection plates for 30 minutes. • 9. Read plates in Envision with wavelength set at excitation 340 nm for Tb, emission 490 nm, and […] 520 nm. • 10.

Where a name gives a salt, the structure may show the parent alone.

T1 sequence (Q9Y463 whole entry): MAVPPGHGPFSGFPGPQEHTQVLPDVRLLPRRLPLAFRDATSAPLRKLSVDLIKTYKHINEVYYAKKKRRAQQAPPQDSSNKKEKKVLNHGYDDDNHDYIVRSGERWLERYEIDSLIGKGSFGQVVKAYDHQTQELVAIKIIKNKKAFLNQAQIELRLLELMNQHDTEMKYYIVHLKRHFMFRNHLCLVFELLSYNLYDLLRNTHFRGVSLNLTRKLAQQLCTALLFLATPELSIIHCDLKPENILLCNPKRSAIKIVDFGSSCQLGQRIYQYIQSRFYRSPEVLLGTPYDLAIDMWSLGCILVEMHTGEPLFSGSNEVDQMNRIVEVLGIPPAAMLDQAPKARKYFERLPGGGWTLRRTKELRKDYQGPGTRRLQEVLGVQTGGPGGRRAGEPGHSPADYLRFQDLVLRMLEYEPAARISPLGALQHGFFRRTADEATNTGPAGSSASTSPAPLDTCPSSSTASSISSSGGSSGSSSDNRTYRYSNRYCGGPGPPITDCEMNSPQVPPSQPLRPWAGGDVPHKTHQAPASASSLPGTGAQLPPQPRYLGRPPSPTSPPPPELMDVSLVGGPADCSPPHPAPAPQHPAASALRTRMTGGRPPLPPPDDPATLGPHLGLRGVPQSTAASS

On to `NCC(Nc1nccc(-c2n[nH]c3nc(N[C@H]4CC[C@H](N)CC4)ncc23)n1)c1ccccc1` (stereo partly shown) [Example 67, N-{3-[2-(2-Amino-1-phenyl-ethylamino)-pyrimidin-4-yl]-1H-pyrazolo[3,4-d]pyrimidin-6-yl}-cyclohexane-1,4-diamine; hydrochloride], for which the IC50 (commonly the point on the concentration scale where inhibition reaches its midpoint) is 0.00517 µM in experiment [1] and 0.0046 µM in experiment [2].

For the compound `Clc1ccc(CNc2cccc(-c3n[nH]c4nc(NCCN5CCOCC5)ncc34)n2)cc1` [Example 48, {3-[6-(4-Chloro-benzylamino)-pyridin-2-yl]-1H-pyrazolo[3,4-d]pyrimidin-6-yl}-(2-morpholin-4-yl-ethyl)-amine], the IC50 in experiment [1] was found to be 2.92 µM; in experiment [2], 2.96 µM.

In the case of `c1ccc(CNc2cccc(-c3n[nH]c4nc(NCCN5CCOCC5)ncc34)n2)cc1` [Example 45, [3-(6-Benzylamino-pyridin-2-yl)-1H-pyrazolo[3,4-d]pyrimidin-6-yl]-(2-morpholin-4-yl-ethyl)-amine], the IC50 in experiment [1] was determined as 4.58 µM; in experiment [2], 2.31 µM.

For the compound `OCCNc1ncc2c(-c3ccnc(NCc4cccc(Cl)c4)n3)n[nH]c2n1` [Example 91, 2-{3-[2-(3-Chloro-benzylamino)-pyrimidin-4-yl]-1H-pyrazolo[3,4-d]pyrimidin-6-ylamino}-ethanol; hydrochloride], the IC50 in experiment [1] was found to be 0.183 µM; in experiment [2], 0.25 µM.

As for `N[C@H]1CC[C@@H](Nc2ncc3c(-c4ccnc(NCc5cccc(Cl)c5)n4)n[nH]c3n2)CC1` [Example 89, N-{3-[2-(3-Chloro-benzylamino)-pyrimidin-4-yl]-1H-pyrazolo[3,4-d]pyrimidin-6-yl}-cyclohexane-1,4-diamine; hydrochloride], the IC50 in experiment [1] is 0.186 µM; in experiment [2], 0.415 µM.

`CN(C)CCNc1ncc2c(-c3ccnc(NCc4cccc(Cl)c4)n3)n[nH]c2n1` [Example 87, N-{3-[2-(3-Chloro-benzylamino)-pyrimidin-4-yl]-1H-pyrazolo[3,4-d]pyrimidin-6-yl}-N′,N′-dimethyl-ethane-1,2-diamine; hydrochloride]: the IC50 in experiment [1] turned out to be 0.69 µM; in experiment [2], 0.31 µM.

As for `Clc1cccc(CNc2nccc(-c3n[nH]c4nc(NCCN5CCNCC5)ncc34)n2)c1` [Example 92, {3-[2-(3-Chloro-benzylamino)-pyrimidin-4-yl]-1H-pyrazolo[3,4-d]pyrimidin-6-yl}-(2-piperazin-1-yl-ethyl)-amine; hydrochloride], the IC50 in experiment [1] is 0.057 µM; in experiment [2], 0.076 µM.

Turning to `c1ccc(CNc2cccc(-c3n[nH]c4nc(NCCN5CCOCC5)ncc34)c2)cc1` [Example 46, [3-(3-Benzylamino-phenyl)-1H-pyrazolo[3,4-d]pyrimidin-6-yl]-(2-morpholin-4-yl-ethyl)-amine], the inhibition (commonly the percentage by which the read-out fell short of the control) at 10 µM was determined as 43% in experiment [1] and 55% in experiment [2] (at 10 μM test compound concentration, where the IC50 was not determined).

For `NCCC(Nc1nccc(-c2n[nH]c3nc(N[C@H]4CC[C@H](N)CC4)ncc23)n1)c1ccccc1` (stereo partly shown) [Example 68, N-{3-[2-(3-Amino-1-phenyl-propylamino)-pyrimidin-4-yl]-1H-pyrazolo[3,4-d]pyrimidin-6-yl}-cyclohexane-1,4-diamine; hydrochloride], the IC50 in experiment [1] and in experiment [2] was 0.011 µM each time.

Regarding `N[C@H]1CC[C@H](Nc2ncc3c(-c4ccnc(NCc5cccc(C(F)(F)F)c5)n4)n[nH]c3n2)CC1` [Example 84, N-{3-[2-(3-Trifluoromethyl-benzylamino)-pyrimidin-4-yl]-1H-pyrazolo[3,4-d]pyrimidin-6-yl}-cyclohexane-1,4-diamine; hydrochloride], the IC50 in experiment [1] worked out at 0.007 µM; in experiment [2], 0.005 µM.

As for `Clc1cccc(CNc2nccc(-c3n[nH]c4nc(NCCN5CCCC5)ncc34)n2)c1` [Example 90, {3-[2-(3-Chloro-benzylamino)-pyrimidin-4-yl]-1H-pyrazolo[3,4-d]pyrimidin-6-yl}-(2-pyrrolidin-1-yl-ethyl)-amine; hydrochloride], the IC50 in experiment [1] is 1.32 µM; in experiment [2], 0.536 µM.

As to `Clc1cccc(CNc2nccc(-c3n[nH]c4nc(NCCN5CCCCC5)ncc34)n2)c1` [Example 93, hydrochloride], the IC50 in experiment [1] was determined as 0.93 µM; in experiment [2], 0.46 µM.

For the compound `Clc1ccc(CNc2cccc(-c3n[nH]c4nc(NCCN5CCOCC5)ncc34)c2)cc1` [Example 50, {3-[3-(4-Chloro-benzylamino)-phenyl]-1H-pyrazolo[3,4-d]pyrimidin-6-yl}-(2-morpholin-4-yl-ethyl)-amine], the IC50 is more than 10 µM in experiment [1] and 4.91 µM in experiment [2].

With `Clc1cccc(CNc2nccc(-c3n[nH]c4nc(NC5CCNCC5)ncc34)n2)c1` [Example 86, {3-[2-(3-Chloro-benzylamino)-pyrimidin-4-yl]-1H-pyrazolo[3,4-d]pyrimidin-6-yl}-piperidin-4-yl-amine; hydrochloride], the values for the IC50 in experiment [1] and in experiment [2] were 0.078 µM and 0.047 µM, respectively.

`N[C@H]1CC[C@H](Nc2ncc3c(-c4ccnc(NCc5cccc(F)c5)n4)n[nH]c3n2)CC1` [Example 85, N-{3-[2-(3-Fluoro-benzylamino)-pyrimidin-4-yl]-1H-pyrazolo[3,4-d]pyrimidin-6-yl}-cyclohexane-1,4-diamine; hydrochloride]: the IC50 in experiment [1] is less than 0.0046 µM; in experiment [2], 0.0046 µM.

Regarding `c1ccc(CNc2cccc(-c3n[nH]c4nc(NCCN5CCCCC5)ncc34)n2)cc1` [Example 44, [3-(6-Benzylamino-pyridin-2-yl)-1H-pyrazolo[3,4-d]pyrimidin-6-yl]-(2-piperidin-1-yl-ethyl)-amine], the inhibition at 10 µM in experiment [1] is 32%. Also, in experiment [2], the IC50 amounted to 3.96 µM.

Take `Clc1cccc(CNc2nccc(-c3n[nH]c4nc(NCC5CCNCC5)ncc34)n2)c1` [Example 88, {3-[2-(3-Chloro-benzylamino)-pyrimidin-4-yl]-1H-pyrazolo[3,4-d]pyrimidin-6-yl}-piperidin-4-ylmethyl-amine; hydrochloride]: the IC50 in experiment [1] was found to be 0.016 µM; in experiment [2], 0.0089 µM.
